Here are results for 29 compounds from US10626112B2, “Heterocyclic sulfonamide derivative and medicine comprising same” (EA PHARMA CO., LTD., priority 2014, dated 2020).

The target of the assay is human TRPA1 (Homo sapiens (Human), UniProt O75762). As to the kind of experiment: Measurement of TRPA1 antagonist activity (1): intracellular calcium increase. It counts as cell-based. The note with it: 293T cells transfected with human TRPA1 expression plasmid; allylisothiocyanate 20 μM stimulation; intracellular calcium fluorescence; read-out: hTRPA1 IC50. The method, boiled down: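 Calcium-flux readout of TRPA1 block: compound given 10 min before 20 μM (final) allylisothiocyanate, fluorescence tracked 5 min. Cells were 293T transiently expressing human TRPA1, dye-loaded 1 hr in HBSS, 20 mM HEPES, pH 7.2. Inhibition scaled between agonist-only and buffer-only responses; IC50 by sigmoid fitting.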
Chain of human TRPA1 (O75762 whole entry): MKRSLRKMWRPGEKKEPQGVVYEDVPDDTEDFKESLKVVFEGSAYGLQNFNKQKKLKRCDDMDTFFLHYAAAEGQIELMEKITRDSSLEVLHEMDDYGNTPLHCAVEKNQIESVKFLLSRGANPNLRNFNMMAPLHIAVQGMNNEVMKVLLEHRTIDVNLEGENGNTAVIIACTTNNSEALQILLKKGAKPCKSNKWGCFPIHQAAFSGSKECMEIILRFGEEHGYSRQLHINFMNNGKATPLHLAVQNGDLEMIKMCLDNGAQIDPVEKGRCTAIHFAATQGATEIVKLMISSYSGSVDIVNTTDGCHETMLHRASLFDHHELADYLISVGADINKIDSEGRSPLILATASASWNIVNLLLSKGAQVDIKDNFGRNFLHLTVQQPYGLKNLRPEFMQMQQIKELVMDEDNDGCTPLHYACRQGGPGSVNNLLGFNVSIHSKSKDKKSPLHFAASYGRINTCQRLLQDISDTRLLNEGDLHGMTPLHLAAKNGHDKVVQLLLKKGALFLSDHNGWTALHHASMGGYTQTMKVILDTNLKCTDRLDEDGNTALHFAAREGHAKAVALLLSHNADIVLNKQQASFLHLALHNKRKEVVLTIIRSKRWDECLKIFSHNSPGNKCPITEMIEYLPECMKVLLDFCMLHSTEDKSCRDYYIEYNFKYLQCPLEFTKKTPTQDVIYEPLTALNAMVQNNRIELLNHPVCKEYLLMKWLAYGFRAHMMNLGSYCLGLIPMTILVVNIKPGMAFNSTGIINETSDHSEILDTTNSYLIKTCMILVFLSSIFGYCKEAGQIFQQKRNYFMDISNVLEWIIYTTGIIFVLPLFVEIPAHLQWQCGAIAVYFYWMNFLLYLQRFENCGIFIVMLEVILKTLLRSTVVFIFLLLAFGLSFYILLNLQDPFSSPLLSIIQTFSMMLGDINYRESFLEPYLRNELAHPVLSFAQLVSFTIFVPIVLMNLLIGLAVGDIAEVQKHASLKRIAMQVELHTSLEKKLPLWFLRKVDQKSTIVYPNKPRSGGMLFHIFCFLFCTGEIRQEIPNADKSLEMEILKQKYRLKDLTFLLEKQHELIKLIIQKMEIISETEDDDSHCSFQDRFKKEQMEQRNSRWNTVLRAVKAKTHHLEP
In general terms: Calcium assays in cells follow changes in intracellular calcium, usually with a dye or a luminescent sensor.
`O=C(NCc1cccc(OS(=O)(=O)c2cc3cc(F)ccc3o2)c1)[C@@H]1CCCN1S(=O)(=O)c1cc2cc(F)ccc2o1` [Example 295, 5-fluorobenzofuran-2-sulfonic acid [3-[[[(2S)-1-(5-fluorobenzofuran-2-yl)sulfonylpyrrolidine-2-carbonyl]amino]methyl]phenyl]ester]: the concentration for half-maximal inhibition (IC50) came out at 69 nM.

Take `O=C(NCc1cccc(-c2ccc(N3CCCC3)nc2)c1)[C@@H]1CCCN1S(=O)(=O)c1cc2cc(F)ccc2o1` [Example 160, (2S)-1-(5-fluorobenzofuran-2-yl)sulfonyl-N-[[3-(6-pyrrolidin-1-yl-3-pyridyl)phenyl]methyl]-pyrrolidine-2-carboxamide]: the half-maximal inhibitory concentration (IC50) was determined as 19 nM.

In the case of `N#Cc1ccc(-c2cc(CNC(=O)[C@@H]3CCCN3S(=O)(=O)c3cc4ccccc4o3)ccn2)c(OCc2ccccc2)c1` [Example 126, (2S)-1-(benzofuran-2-ylsulfonyl)-N-[[2-(2-benzyloxy-4-cyano-phenyl)-4-pyridyl]methyl]pyrrolidine-2-carboxamide], the IC50 was determined as 78 nM.

In the case of `O=C(NCc1ccc(O)c(-c2ccc(C(F)(F)F)cn2)c1)[C@@H]1CCCN1S(=O)(=O)c1cc2cnccc2o1` [Example 273, (2S)-1-furo[3,2-c]pyridin-2-ylsulfonyl-N-[[4-hydroxy-3-[5-(trifluoromethyl)-2-pyridyl]phenyl]methyl]-pyrrolidine-2-carboxamide], the half-inhibitory concentration (IC50) was determined as 1.6 nM.

On to `O=C(NCc1ccc(OC(F)(F)F)cc1)[C@@H]1CCCN1S(=O)(=O)c1cc2ccccc2o1` [Example 63, (2S)-1-(benzofuran-2-ylsulfonyl)-N-[[4-(trifluoromethoxy)phenyl]methyl]-pyrrolidine-2-carboxamide], for which the 50% inhibitory concentration (IC50) stood at 60 nM.

As to `O=C(NCc1ccnc(-c2ccc(C(F)(F)F)cn2)c1)[C@@H]1CCCN1S(=O)(=O)c1cc2cc(F)ccc2o1` [Example 221, (2S)-1-(5-fluorobenzofuran-2-yl)sulfonyl-N-[[2-[5-(trifluoromethyl)-2-pyridyl]-4-pyridyl]methyl]pyrrolidine-2-carboxamide], the IC50 turned out to be 6.6 nM.

On to `O=C(NCc1cccc([S+]([O-])Cc2ccc(C(F)(F)F)cc2)c1)[C@@H]1CCCN1S(=O)(=O)c1cc2ccccc2o1` (stereo partly drawn) [Example 316, (2S)-1-(benzofuran-2-ylsulfonyl)-N-[[3-[[4-(trifluoromethyl)phenyl]methylsulfinyl]phenyl]methyl]pyrrolidine-2-carboxamide], for which the 50% inhibitory concentration (IC50) worked out at 230 nM.

For `O=C(NCc1ccc(-c2ccccc2)cc1)[C@@H]1CCCN1S(=O)(=O)c1cc2cc(F)ccc2o1` [Example 76, (2S)-1-(5-fluorobenzofuran-2-yl)sulfonyl-N-[(4-phenylphenyl)methyl]pyrrolidine-2-carboxamide], the IC50 was found to be 47 nM.

As for `O=C(NCc1cccc(Sc2ccc(C(F)(F)F)cc2)c1)[C@@H]1CCCN1S(=O)(=O)c1cc2ccccc2o1` [Example 321, (2S)-1-(benzofuran-2-ylsulfonyl)-N-[[3-[4-(trifluoromethyl)phenyl]sulfanylphenyl]methyl]pyrrolidine-2-carboxamide], the concentration for half-maximal inhibition (IC50) was found to be 33 nM.

Turning to `CC(C)(C)c1ccc(-c2ccnc(CNC(=O)[C@@H]3CCCN3S(=O)(=O)c3cc4ccccc4o3)c2)cc1` [Example 285, (2S)-1-(benzofuran-2-ylsulfonyl)-N-[[4-(4-tert-butylphenyl)-2-pyridyl]methyl]pyrrolidine-2-carboxamide], the half-maximal inhibitory concentration (IC50) came to 30 nM.

On to `O=C(NCc1ccnc(-c2ccc(F)cc2O)c1)[C@@H]1CCCN1S(=O)(=O)c1cc2cc(F)ccc2o1` [Example 136, (2S)-1-(5-fluorobenzofuran-2-yl)sulfonyl-N-[[2-(4-fluoro-2-hydroxy-phenyl)-4-pyridyl]methyl]pyrrolidine-2-carboxamide], for which the IC50 is 13 nM.

With `O=C(NCc1cccc(OCc2ccccc2)c1)[C@@H]1CCCN1S(=O)(=O)c1cc2cnccc2o1` [Example 267, (2S)-N-[(3-benzyloxyphenyl)methyl]-1-furo[3,2-c]pyridin-2-ylsulfonyl-pyrrolidine-2-carboxamide], the 50% inhibitory concentration (IC50) was 6.4 nM.

Turning to `O=C(NCc1cccc(OCc2cccc(CN3CCOCC3)c2)c1)[C@@H]1CCCN1S(=O)(=O)c1cc2cc(F)ccc2o1` [Example 27, (2S)-1-(5-fluorobenzofuran-2-yl)sulfonyl-N-[[3-[[3-(morpholinomethyl)phenyl]-methoxy]phenyl]methyl]-pyrrolidine-2-carboxamide], the IC50 turned out to be 8.2 nM.

As to `C[C@H](NS(=O)(=O)c1cc2cc(F)ccc2o1)C(=O)NCc1cc(-c2ncc(C(F)(F)F)cn2)ccn1` [Example 242, (2S)-2-[(5-fluorobenzofuran-2-yl)sulfonylamino]-N-[[4-[5-(trifluoromethyl)pyrimidin-2-yl]-2-pyridyl]methyl]propanamide], the IC50 is 160 nM.

`O=C(NCc1ccnc(-c2ccc(C(F)(F)F)cc2)c1)[C@@H]1CCCN1S(=O)(=O)c1cc2cc(F)ccc2o1` [Example 128, (2S)-1-(5-fluorobenzofuran-2-yl)sulfonyl-N-[[2-[4-(trifluoromethyl)phenyl]-4-pyridyl]methyl]pyrrolidine-2-carboxamide]: the IC50 amounted to 0.61 nM.

As for `C[C@H](NC(=O)[C@@H]1CCCN1S(=O)(=O)c1cc2ccccc2o1)c1cccc(-c2ccc(C(F)(F)F)nc2)c1` [Example 287, (2S)-1-(benzofuran-2-ylsulfonyl)-N-[(1S)-1-[3-[6-(trifluoromethyl)-3-pyridyl]phenyl]ethyl]pyrrolidine-2-carboxamide], the IC50 was determined as 7.9 nM.

As to `O=C(NCc1cc(-c2ccc(C(F)(F)F)cn2)ccn1)[C@@H]1C[C@@H](c2ccccc2)CN1S(=O)(=O)c1cc2cc(F)ccc2o1` [Example 260, (2S,4S)-1-(5-fluorobenzofuran-2-yl)sulfonyl-4-phenyl-N-[[4-[5-(trifluoromethyl)-2-pyridyl]-2-pyridyl]methyl]pyrrolidine-2-carboxamide], the half-maximal inhibitory concentration (IC50) amounted to 51 nM.

As to `C[C@H](NS(=O)(=O)c1cc2cc(F)ccc2o1)C(=O)NCc1cccc(-c2ccc(C(F)(F)F)cn2)c1` [Example 107, (2S)-2-[(5-fluorobenzofuran-2-yl)sulfonylamino]-N-[[3-[5-(trifluoromethyl)-2-pyridyl]phenyl]methyl]propanamide], the IC50 was 6.9 nM.

With `O=C(NCc1cc(-c2ccc(C(F)(F)F)nn2)ccn1)[C@@H]1CCCN1S(=O)(=O)c1cc2ccccc2o1` [Example 202, (2S)-1-(benzofuran-2-ylsulfonyl)-N-[[4-[6-(trifluoromethyl)pyridazin-3-yl]-2-pyridyl]methyl]pyrrolidine-2-carboxamide], the half-maximal inhibitory concentration (IC50) was 4.3 nM.

Take `C[C@H](NS(=O)(=O)c1cc2ccccc2o1)C(=O)NCc1cccc(-c2ccc(C(F)(F)F)cn2)c1` [Example 102, (2S)-2-(benzofuran-2-ylsulfonylamino)-N-[[3-[5-(trifluoromethyl)-2-pyridyl]phenyl]methyl]propanamide]: the IC50 is 28 nM.

For `CN(C)c1cccc(COc2cccc(CNC(=O)[C@@H]3CCCN3S(=O)(=O)c3cc4cc(F)ccc4o3)c2)n1` [Example 26, (2S)-N-[[3-[[6-(dimethylamino)-2-pyridyl]methoxy]phenyl]-methyl]-1-(5-fluorobenzofuran-2-yl)sulfonyl-pyrrolidine-2-carboxamide], the 50% inhibitory concentration (IC50) came to 23 nM.

For `O=C(NCc1cccc(-c2ccc(C(F)(F)F)cn2)c1)[C@@H]1CCCN1S(=O)(=O)c1cc2cc(F)ccc2o1` [Example 89, (2S)-1-(5-fluorobenzofuran-2-yl)sulfonyl-N-[[3-[5-(trifluoromethyl)-2-pyridyl]phenyl]methyl]pyrrolidine-2-carboxamide], the half-maximal inhibitory concentration (IC50) was determined as 0.38 nM.

Take `O=C(NCc1cccc(-c2ncc(C(F)(F)F)cn2)c1)[C@@H]1CCCN1S(=O)(=O)c1cc2ccccc2o1` [Example 194, (2S)-1-(benzofuran-2-ylsulfonyl)-N-[[3-[5-(trifluoromethyl)pyrimidin-2-yl]phenyl]-methyl]pyrrolidine-2-carboxamide]: the IC50 was 10 nM.

For the compound `CC#CCN([C@@H](C)C(=O)NCc1ccnc(-c2ccc(C(F)(F)F)nc2)c1)S(=O)(=O)c1cc2cc(F)ccc2o1` [Example 313, (2S)-2-[but-2-ynyl-(5-fluorobenzofuran-2-yl)sulfonyl-amino]-N-[[2-[6-(trifluoromethyl)-3-pyridyl]-4-pyridyl]methyl]propanamide], the IC50 is 37 nM.

For `COC(=O)C(Oc1cccc(CNC(=O)[C@@H]2CCCN2S(=O)(=O)c2cc3cc(F)ccc3o2)c1)c1ccccc1` (stereo partly drawn) [Example 29, methyl 2-[3-[[[(2S)-1-(5-fluorobenzofuran-2-yl)sulfonylpyrrolinidine-2-carbonyl]amino]methyl]-phenoxy]-2-phenylacetate], the IC50 is 340 nM.

For `O=C(NCc1cccc(OCc2ccnc(C(F)(F)F)c2)c1)[C@@H]1CCCN1S(=O)(=O)c1cc2cc(F)ccc2o1` [Example 16, (2S)-1-(5-fluorobenzofuran-2-yl)sulfonyl-N-[[3-[[2-(trifluoromethyl)-4-pyridyl]methoxy]phenyl]-methyl]pyrrolidine-2-carboxamide], the 50% inhibitory concentration (IC50) was 2.8 nM.

Take `O=C(NCc1cccc(-c2ccc(C(F)(F)F)nc2)c1)[C@@H]1CCCN1S(=O)(=O)c1cc2c(F)cccc2o1` [Example 92, (2S)-1-(4-fluorobenzofuran-2-yl)sulfonyl-N-[[3-[6-(trifluoromethyl)-3-pyridyl]phenyl]methyl]pyrrolidine-2-carboxamide]: the half-maximal inhibitory concentration (IC50) came out at 2.2 nM.

On to `O=C(NCc1ccnc(-c2ccccc2O)c1)[C@@H]1CCCN1S(=O)(=O)c1cc2cc(F)ccc2o1` [Example 135, (2S)-1-(5-fluorobenzofuran-2-yl)sulfonyl-N-[[2-(2-hydroxyphenyl)-4-pyridyl]methyl]pyrrolidine-2-carboxamide], for which the half-inhibitory concentration (IC50) came out at 30 nM.

Regarding `O=C(Nc1cccc(CNC(=O)[C@@H]2CCCN2S(=O)(=O)c2cc3ccccc3o2)c1)c1ccc(C(F)(F)F)cc1` [Example 300, (2S)-1-(benzofuran-2-ylsulfonyl)-N-[[3-[[4-(trifluoromethyl)benzoyl]amino]phenyl]methyl]pyrrolidine-2-carboxamide], the IC50 is 310 nM.

Broadly, the IC50 is the point on the concentration scale where inhibition reaches its midpoint.
